# Source: patent US8114850B2, “Antiproliferative activity of G-rich oligonucleotides and method of using same to bind to nucleolin” (Advanced Cancer Therapeutics, LLC, priority 1999, dated 2012)
# What was measured:
# [1] = target: T1, G-rich oligonucleotide binding protein / nucleolin (Homo sapiens, UniProt P19338); test: Protein binding, summary statements (EMSA); conditions: summary statement
# T1 construct: endogenous in cells; MDA-MB-231)
# Excerpt: (§1) By G-rich oligonucleotide (GRO) it is meant that the oligonucleotides consist of 4-100 nucleotides (preferably 10-30 nucleotides) with DNA, RNA, 2′-O-methyl, phosphorothioate or other chemically similar backbones. Their sequences contain one or more GGT motifs. The oligonucleotides have antiproliferative activity against cells and bind to GRO binding protein and/or nucleolin.
# Additionally, the present invention provides a method for selecting oligonucleotides that bind to nucleolin. The method utilizes an electrophoretic mobility shift assay (EMSA), as described below, to screen for oligonucleotides that bind strongly to nucleolin and which, therefore, would be expected, according to the present invention, to have anti-proliferative activity. Oligonucleotides to be screened as potential antiproliferative agents are labeled and then incubated with nuclear extracts in the absence or presence of unlabeled competitor oligonucleotide and are allowed to react. The reaction mixtures are then electrophoresed and mobility shifts and/or bond intensity can be used to identify those oligonucleotides which have bound to the specific protein.
# Alternatively, unlabeled compounds to be screened are incubated with nuclear extracts in the presence of labeled oligonucleotide (for example 5′-TTAGGGTTAGGGTTAGGG TTAGGG) (SEQ ID NO: 20) and binding is assessed by a decrease in the intensity of the shifted band, as in FIG. 6B.
# breast cancer cells = test: Summary statements on growth of breast cancer cells / antiproliferative activity; format: cell-based; conditions: for antiproliferative activity: cells not given; for modulate the growth of breast cancer cells and/or compete for binding to the G-rich oligonucleotide binding protein (EMSA): and/or statement, FIGS. 6 and 7
# Excerpt: as §1
# [2] = target: T2, TEL-binding protein (GRO-binding protein/nucleolin, MDA-MB-231 nuclear extracts) (Homo sapiens, UniProt P19338); test: Competitive EMSA, labeled TEL and MDA-MB-231 nuclear extracts; conditions: for competition with TEL for binding to the nuclear protein: unlabeled competitor, 10-fold molar excess, FIG. 7B
# T2 construct: Nuclear and cytoplasmic extracts from MDA-MB-231 cells were prepared using the protocol described in F. M. Ausubel et al; endogenous in cells; host or cells: MDA-MB-231 nuclear extract, prepared in house
# T2 sequence (P19338 whole entry): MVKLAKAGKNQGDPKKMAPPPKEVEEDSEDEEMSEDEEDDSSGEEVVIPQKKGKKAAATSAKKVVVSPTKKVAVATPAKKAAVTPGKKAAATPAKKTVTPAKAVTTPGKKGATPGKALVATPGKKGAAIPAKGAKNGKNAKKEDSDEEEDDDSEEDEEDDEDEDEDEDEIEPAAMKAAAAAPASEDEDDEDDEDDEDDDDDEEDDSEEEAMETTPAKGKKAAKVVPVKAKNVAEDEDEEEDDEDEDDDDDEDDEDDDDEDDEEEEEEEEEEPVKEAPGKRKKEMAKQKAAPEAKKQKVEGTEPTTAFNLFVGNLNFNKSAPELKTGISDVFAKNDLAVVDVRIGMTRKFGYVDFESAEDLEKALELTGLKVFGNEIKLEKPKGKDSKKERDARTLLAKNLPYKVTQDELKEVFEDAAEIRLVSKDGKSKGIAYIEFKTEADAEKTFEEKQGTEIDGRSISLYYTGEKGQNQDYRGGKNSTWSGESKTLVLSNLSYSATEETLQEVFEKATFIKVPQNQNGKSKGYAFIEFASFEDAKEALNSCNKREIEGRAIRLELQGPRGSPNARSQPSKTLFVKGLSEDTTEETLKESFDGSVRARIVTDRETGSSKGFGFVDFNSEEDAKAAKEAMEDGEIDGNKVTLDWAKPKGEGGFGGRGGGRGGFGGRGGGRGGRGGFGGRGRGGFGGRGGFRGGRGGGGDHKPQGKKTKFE
# [3] = system: MDA-MB-231 breast cancer cells; test: MTT cell growth assay, MDA-MB-231 cells; format: cell-based, human; conditions: for antiproliferative activity, MDA-MB-231: single 10 uM dose, FIG. 7A
# Protocol: Cells were plated at low density ([…] cells per well, depending on cell line) in the appropriate serum-supplemented medium in 96-well plates (one plate per MTT assay time point) and grown under standard conditions of cell culture. The following day (day 1) oligonucleotide, or water as control, was added to the culture medium to give a final concentration of 15 uM. Further oligonucleotide, equivalent to half the initial dose, was added to the culture medium on days two, three and four. Cells were assayed using the MTT assay (Morgan (1998) Methods. Mol. Biol. 79, 179-183) on days one, three, five, seven and nine after plating. The culture medium was not changed throughout the duration of the experiment (which was the time required for untreated cells to grow to confluence). Experiments were performed in triplicate and bars represent the standard error of the data. For the experiment shown in FIG. 7A, MDA-MB-231 breast cancer cells (5×10^2 cells per well) were plated in a 96-well plate. After twenty-four hours, a single dose of oligonucleotide, or equal volume of PBS as a control, was added to the culture medium to a final concentration of 10 uM. Viable cells were assessed seven days after plating using the MTT assay. For the experiment using 3′-unmodified oligonucleotides (FIG. 7D), serum-supplemented medium was replaced by serum-free medium containing oligonucleotide (or serum-free medium alone in control wells). After incubation at 37° C. for four hours, fetal calf serum (Life Technologies, Inc.) was added to the medium to give 10% v/v.
# [4] = target: T3, GRO-binding protein/nucleolin (HeLa nuclear extracts) (Homo sapiens, UniProt P19338); test: UV cross-linking of oligonucleotides to HeLa nuclear extracts; conditions: labeled oligonucleotide with HeLa nuclear extracts; FIG. 6C
# T3 construct: HeLa nuclear extracts used in EMSAs were purchased from Promega Inc. (bandshift grade); host or cells: HeLa nuclear extract (bandshift grade), purchased
# T3 sequence (P19338 whole entry): as above
# Protocol: For the UV crosslinking experiments, samples were incubated as described above (EMSA). They were then placed on ice and irradiated at 5 cm from the source using the “autocross link” function of a Stratagene UV Stratalinker. Following irradiation, samples were electrophoresed under denaturing conditions on a 8% polyacrylamide-SDS gel using a standard Tris glycine buffer and visualized by autoradiography.
# To determine the approximate molecular weight of the protein involved in complex A, and to confirm that competition for this complex results from direct binding of the protein to oligonucleotides, a UV cross-linking study was conducted. 5′-Labeled oligonucleotides and HeLa nuclear extracts were incubated alone or in the presence of unlabeled competitor oligonucleotides.
# The samples were then irradiated with UV light resulting in cross-link formation between protein residues and thymidines in the oligonucleotide. The protein was thus radiolabeled and could be detected on a SDS-polyacrylamide gel.
# [5] = Detection of G-quartets by UV thermal denaturation/renaturation; format: physicochemical; conditions: absorbance at 295 nm; for G-quartet formation (UV annealing curve): FIG. 4
# Protocol: Oligonucleotides were resuspended in Tm buffer (20 mM Tris HCl, pH 8.0, 140 mM KCl, 2.5 mM MgCl2) at a concentration such that A260=0.6 (molar concentrations ranged from […]). Samples were annealed by boiling for five minutes and allowing to cool slowly to room temperature and overnight incubation at 4° C. Thermal denaturation/renaturation experiments were carried out using an Amersham Pharmacia Biotech Ultrospec 2000 instrument equipped with a Peltier effect heated cuvette holder and temperature controller (Amersham Pharmacia Biotech). Absorbance at 295 nm was monitored over a temperature range of 25-95 or 20-90° C. at a heating/cooling rate of 0.5° C./min. To investigate the formation of G-quartet structures by the G-rich oligonucleotides, a U.V. melting technique described by […] et al. (1998) FEBS Lett. 435, 74-78 was used. This method relies on the fact that dissociation of G-quartets leads to a decrease in absorbance at 295 nm and is reported to give a more reliable indication of intramolecular G-quartet formation than measurement at 260 nm.
# [6] = system: MDA-MB-231 breast cancer cells; test: Chemotherapeutic agent and GRO combination, MTT assay; format: cell-based, human; conditions: cisplatin 0.5 µg/ml, GR029A 8 uM added after two hours, MTT after six days
# Protocol: Cisplatin (in 1% DMSO solution to give a final concentration of […]) was added to the medium of MDA-MB-231 breast cancer cells growing in culture. After two hours, GR029A (in PBS solution to give a final concentration of 8 uM) was added to the medium. After six days, the relative number of viable cells was determined using the MTT assay. Cells treated with GR029A alone received an appropriate volume of 1% DMSO in place of cisplatin. Cells treated with cisplatin alone received an appropriate volume of PBS in place of GR029A.
# [7] = target: T4, 106 kDa nuclear protein (p106, GRO-binding protein/nucleolin) (Homo sapiens, UniProt P19338); test: Southwestern blot of HeLa nuclear extracts; conditions: 32P-labeled oligonucleotide, 4° C.; FIG. 6D
# T4 construct: HeLa nuclear extracts used in EMSAs were purchased from Promega Inc. (bandshift grade); host or cells: HeLa nuclear extract (bandshift grade), purchased
# T4 sequence (P19338 whole entry): as above
# Protocol: Nuclear extracts were electrophoresed on a 8% polyacrylamide-SDS gel and transferred to polyvinylidene difluoride (PVDF) membrane by electroblotting using a Tris glycine/methanol (10% v/v) buffer. Immobilized proteins were denatured and renatured by washing for thirty minutes at 4° C. with 6 M guanidine. HCl followed by washes in 1:1, 1:2 and 1:4 dilutions of 6M guanidine in HEPES binding buffer (25 mM HEPES pH 7.9, 4 mM KCl, 3 mM MgCl2). The membrane was blocked by washing for one hour in a 5% solution of non-fat dried milk (NDM) in binding buffer.
# Hybridization of the labeled oligonucleotide (1-4×10^6 cpm) took place for two hours at 4° C. in HEPES binding buffer supplemented with 0.25% NDM, 0.05% Nonidet P […] salmon sperm DNA and […] of an unrelated, mixed sequence 35-mer oligonucleotide (5′-[…] CTTCCTTCCTCTCCA-3′SEQ ID No: 19). Membranes were washed in binding buffer and visualized by autoradiography.
# The molecular weight of the nuclear protein was more accurately determined by Southwestern blotting. HeLa nuclear extracts were electrophoresed on an 8% polyacrylamide-SDS gel and transferred to a PVDF membrane. The membrane was blocked and cut into strips. Each strip was incubated at 4° C. with a 32P-labeled G-rich oligonucleotide in the presence of unrelated unlabeled double stranded and single stranded DNA to block non-specific binding.
# T1 sequence (P19338 whole entry): as above
Molecule,protein binding [1],antiproliferative activity (breast cancer cells),"antiproliferative activity, MDA-MB-231 [3]",modulate the growth of breast cancer cells and/or compete for binding to the G-rich oligonucleotide binding protein (EMSA) (breast cancer cells),other results
"5′-GGTGGTGGTGGTTGT GGTGGTGGTGGTTT-3′ (GGTGGTGGTGGTTGTGGTGGTGGTGGTTT; DNA, backbone not given here; further chemistry not fully specified) [GR029-6]",protein binding,demonstrated antiproliferative activity,–,–,–
"5′-GGTTGGGGTGGGTGGGGTG GGTGGG-3′ (GGTTGGGGTGGGTGGGGTGGGTGGG; DNA, backbone not given here; further chemistry not fully specified) [GR025A]",–,–,moderate antiproliferative activity,–,competition with TEL for binding to the nuclear protein [2]: able to compete
"5′-GTTGTTTGGGGTGG-3′ (DNA, backbone not given here; further chemistry not fully specified) [GRO14A]",–,–,moderate antiproliferative activity,–,competition with TEL for binding to the nuclear protein [2]: able to compete
"5′-TGGTGGTGGTGGT-3′ (DNA, backbone not given here; further chemistry not fully specified) [GR029-13]",–,–,–,have been shown to modulate the growth of breast cancer cells and/or to compete for binding,–
"5′-TTAGGGTTAGGGTTAGGGTTAGGG [TEL, reference compound]",–,–,–,–,"UV cross-linked protein complex (approximately 100 kDa) [4]: crosslinked to a protein; competition for protein binding in competitive EMSA ([2]; 10 nM unlabeled oligonucleotide, […]): competed strongly; G-quartet formation (UV annealing curve) [5]: clear transition; melting temperature of G-quartet transition ([5]; Tm buffer pH 8.0, 140 mM KCl, 0.5° C./min): 66 °C; growth of MDA-MB-231 cells, unmodified oligonucleotides ([3]; 10 uM in serum-free medium 4 h, then 10% fetal calf serum, day 7, FIG. 7D): modulated the growth of cells"
"5′-TTTGGTGG TGGTGGTTTTGGTGGTGGTGG-3′ (TTTGGTGGTGGTGGTTTTGGTGGTGGTGG; aptamer; DNA, backbone not given here; further chemistry not fully specified) [GR029-2]",protein binding,demonstrated antiproliferative activity,–,have been shown to modulate the growth of breast cancer cells and/or to compete for binding,–
"5′-TTTGGTGGTGGT GGTGTGGTGGTGGTGG-3′ (TTTGGTGGTGGTGGTGTGGTGGTGGTGG; DNA, backbone not given here; further chemistry not fully specified) [GR028B]",protein binding,demonstrated antiproliferative activity,–,–,–
"5′-TTTGGTGGTGGTGGTGGTGGTGGTGGTGG-3′ (aptamer; DNA, backbone not given here; further chemistry not fully specified) [GR029-3]",protein binding,demonstrated antiproliferative activity,–,have been shown to modulate the growth of breast cancer cells and/or to compete for binding,–
"5′-TTTGGTGGTGGTGGTTGTGG TGGTGGTG-3′ (TTTGGTGGTGGTGGTTGTGGTGGTGGTG; DNA, backbone not given here; further chemistry not fully specified) [GR028A]",–,–,moderate antiproliferative activity,–,competition with TEL for binding to the nuclear protein [2]: able to compete
"5′-TTTGGTGGTGGTGGTTTGGGTGGTGG TGG-3′ (TTTGGTGGTGGTGGTTTGGGTGGTGGTGG; aptamer; DNA, backbone not given here; further chemistry not fully specified) [GR029-5]",protein binding,demonstrated antiproliferative activity,–,have been shown to modulate the growth of breast cancer cells and/or to compete for binding,–
"N.N.[Cl][Pt][Cl] [cis-platin, reference compound]",–,–,–,–,growth modulation [6]: 29%
"GRO15B: inactive G-rich oligonucleotide, SEQ ID NO: 22 (TTGGGGGGGGTGGGT; DNA, backbone not given here; further chemistry not fully specified)",–,–,inactive,–,G-quartet formation (UV annealing curve) [5]: no transition characteristic of intramolecular G-quartet formation; hybridization to protein band at 106 kDa (Southwestern blot) [7]: hybridized only weakly
heparin [reference compound],–,–,–,–,"competition for protein binding in competitive EMSA, heparin ([2]; 0.02 units/ml (approximately 0.12 ug/ml)): No competition; growth of MDA-MB-231 cells, heparin ([3]; 20 units/ml (approximately 0.12 mg/ml), FIG. 7C): no effect on cell growth"
